# Patent publication US9283222B2 (priority 2006, dated 2016)
# Target: Recombinant Human Poly(ADP-Ribose) Polymerase (PARP), PARP-1 (Homo sapiens (Human), UniProt P09874)
# Settings: read-out: PARP-1 (Ki); Table 1; text calls the values EC50s
# Chain of Recombinant Human Poly(ADP-Ribose) Polymerase (PARP), PARP-1 (P09874 whole entry): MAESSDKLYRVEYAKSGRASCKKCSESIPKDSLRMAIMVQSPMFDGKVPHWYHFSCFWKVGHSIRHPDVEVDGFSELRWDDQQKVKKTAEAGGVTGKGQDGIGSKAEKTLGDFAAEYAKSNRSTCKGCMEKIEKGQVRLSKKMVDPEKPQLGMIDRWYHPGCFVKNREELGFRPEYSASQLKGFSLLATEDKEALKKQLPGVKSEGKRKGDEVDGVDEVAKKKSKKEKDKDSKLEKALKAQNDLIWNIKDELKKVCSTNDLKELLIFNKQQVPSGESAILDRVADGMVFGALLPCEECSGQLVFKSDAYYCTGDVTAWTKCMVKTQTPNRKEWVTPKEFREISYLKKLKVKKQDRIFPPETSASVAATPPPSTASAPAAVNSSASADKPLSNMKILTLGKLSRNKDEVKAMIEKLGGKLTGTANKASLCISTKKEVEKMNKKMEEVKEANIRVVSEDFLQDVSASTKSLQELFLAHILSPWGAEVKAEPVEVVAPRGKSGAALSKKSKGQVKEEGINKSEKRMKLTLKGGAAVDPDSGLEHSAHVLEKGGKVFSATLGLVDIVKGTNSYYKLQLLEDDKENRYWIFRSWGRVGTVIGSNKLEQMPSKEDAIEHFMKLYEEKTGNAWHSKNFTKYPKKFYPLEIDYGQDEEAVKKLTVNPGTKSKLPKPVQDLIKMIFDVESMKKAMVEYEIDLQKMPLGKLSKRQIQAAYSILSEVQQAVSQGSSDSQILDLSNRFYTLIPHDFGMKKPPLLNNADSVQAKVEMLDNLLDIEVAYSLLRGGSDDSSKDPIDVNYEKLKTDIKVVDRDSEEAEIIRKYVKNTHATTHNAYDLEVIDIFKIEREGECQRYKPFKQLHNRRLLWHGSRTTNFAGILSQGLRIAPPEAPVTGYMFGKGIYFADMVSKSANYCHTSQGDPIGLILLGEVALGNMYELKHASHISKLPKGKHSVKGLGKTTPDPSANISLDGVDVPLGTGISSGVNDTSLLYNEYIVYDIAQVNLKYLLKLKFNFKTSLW
row,Ki [nM],Structure (SMILES)
1,655,"O=C(Nc1cccc(Cc2n[nH]c(=O)c3c2CCCC3)c1)C(c1ccccc1)c1ccccc1 [Example 174, N-(3-((4-oxo-3,4,5,6,7,8-hexahydrophthalazin-1-yl)methyl)phenyl)-2,2-diphenylacetamide]"
2,21,"O=C(CCS(=O)(=O)c1ccccc1)Nc1cccc(Cc2n[nH]c(=O)c3c2CCCC3)c1 [Example 175, N-(3-((4-oxo-3,4,5,6,7,8-hexahydrophthalazin-1-yl)methyl)phenyl)-3-(phenylsulfonyl)propanamide]"
3,43,"O=C(Cc1cccc(Oc2ccccc2)c1)Nc1cccc(Cc2n[nH]c(=O)c3c2CCCC3)c1 [Example 176, N-(3-((4-oxo-3,4,5,6,7,8-hexahydrophthalazin-1-yl)methyl)phenyl)-2-(3-phenoxyphenyl)acetamide]"
4,156,"CCc1ccc(C(=O)Nc2cccc(Cc3n[nH]c(=O)c4c3CCCC4)c2)cc1 [Example 177, 4-ethyl-N-(3-((4-oxo-3,4,5,6,7,8-hexahydrophthalazin-1-yl)methyl)phenyl)benzamide]"
5,462,"Cc1c(F)cccc1C(=O)Nc1cccc(Cc2n[nH]c(=O)c3c2CCCC3)c1 [Example 178, 3-fluoro-2-methyl-N-(3-((4-oxo-3,4,5,6,7,8-hexahydrophthalazin-1-yl)methyl)phenyl)benzamide]"
6,238,"Cc1ccc(F)cc1C(=O)Nc1cccc(Cc2n[nH]c(=O)c3c2CCCC3)c1 [Example 179, 5-fluoro-2-methyl-N-(3-((4-oxo-3,4,5,6,7,8-hexahydrophthalazin-1-yl)methyl)phenyl)benzamide]"
7,159,"Cc1ccc(C(=O)Nc2cccc(Cc3n[nH]c(=O)c4c3CCCC4)c2)cc1F [Example 180, 3-fluoro-4-methyl-N-(3-((4-oxo-3,4,5,6,7,8-hexahydrophthalazin-1-yl)methyl)phenyl)benzamide]"
8,212,"O=C(Nc1cccc(Cc2n[nH]c(=O)c3c2CCCC3)c1)c1cccc(F)c1F [Example 181, 2,3-difluoro-N-(3-((4-oxo-3,4,5,6,7,8-hexahydrophthalazin-1-yl)methyl)phenyl)benzamide]"
9,292,"O=C(Nc1cccc(Cc2n[nH]c(=O)c3c2CCCC3)c1)c1ccc(F)cc1F [Example 182, 2,4-difluoro-N-(3-((4-oxo-3,4,5,6,7,8-hexahydrophthalazin-1-yl)methyl)phenyl)benzamide]"
10,166,"O=C(Nc1cccc(Cc2n[nH]c(=O)c3c2CCCC3)c1)c1cc(F)ccc1F [Example 183, 2,5-difluoro-N-(3-((4-oxo-3,4,5,6,7,8-hexahydrophthalazin-1-yl)methyl)phenyl)benzamide]"
11,154,"O=C(Nc1cccc(Cc2n[nH]c(=O)c3c2CCCC3)c1)c1cc(F)cc(F)c1 [Example 184, 3,5-difluoro-N-(3-((4-oxo-3,4,5,6,7,8-hexahydrophthalazin-1-yl)methyl)phenyl)benzamide]"
12,250,"CCCc1ccc(C(=O)Nc2cccc(Cc3n[nH]c(=O)c4c3CCCC4)c2)cc1 [Example 185, N-(3-((4-oxo-3,4,5,6,7,8-hexahydrophthalazin-1-yl)methyl)phenyl)-4-propylbenzamide]"
13,160,"CC(C)c1ccc(C(=O)Nc2cccc(Cc3n[nH]c(=O)c4c3CCCC4)c2)cc1 [Example 186, 4-isopropyl-N-(3-((4-oxo-3,4,5,6,7,8-hexahydrophthalazin-1-yl)methyl)phenyl)benzamide]"
14,1250,"CCOc1ccccc1C(=O)Nc1cccc(Cc2n[nH]c(=O)c3c2CCCC3)c1 [Example 187, 2-ethoxy-N-(3-((4-oxo-3,4,5,6,7,8-hexahydrophthalazin-1-yl)methyl)phenyl)benzamide]"
15,185,"CC(C)Oc1ccc(C(=O)Nc2cccc(Cc3n[nH]c(=O)c4c3CCCC4)c2)cc1 [Example 188, 4-isopropoxy-N-(3-((4-oxo-3,4,5,6,7,8-hexahydrophthalazin-1-yl)methyl)phenyl)benzamide]"
16,175,"CCN(CC)c1ccc(C(=O)Nc2cccc(Cc3n[nH]c(=O)c4c3CCCC4)c2)cc1 [Example 189, 4-(diethylamino)-N-(3-((4-oxo-3,4,5,6,7,8-hexahydrophthalazin-1-yl)methyl)phenyl)benzamide]"
17,31,"O=C(Nc1cccc(Cc2n[nH]c(=O)c3c2CCCC3)c1)c1cc(C(F)(F)F)ccc1F [Example 191, 2-fluoro-N-(3-((4-oxo-3,4,5,6,7,8-hexahydrophthalazin-1-yl)methyl)phenyl)-5-(trifluoromethyl)benzamide]"
18,100,"O=C(Nc1cccc(Cc2n[nH]c(=O)c3c2CCCC3)c1)c1ccco1 [Example 193, N-(3-((4-oxo-3,4,5,6,7,8-hexahydrophthalazin-1-yl)methyl)phenyl)-2-furamide]"
19,61,"O=C(Nc1cccc(Cc2n[nH]c(=O)c3c2CCCC3)c1)c1ccoc1 [Example 194, N-(3-((4-oxo-3,4,5,6,7,8-hexahydrophthalazin-1-yl)methyl)phenyl)-3-furamide]"

row,Ki [nM],Structure (SMILES)
1,177,"Cc1cc(C(=O)Nc2cccc(Cc3n[nH]c(=O)c4c3CCCC4)c2)c(C)o1 [Example 195, 2,5-dimethyl-N-(3-((4-oxo-3,4,5,6,7,8-hexahydrophthalazin-1-yl)methyl)phenyl)-3-furamide]"
2,286,"O=C(Nc1cccc(Cc2n[nH]c(=O)c3c2CCCC3)c1)c1cccs1 [Example 196, N-(3-((4-oxo-3,4,5,6,7,8-hexahydrophthalazin-1-yl)methyl)phenyl)thiophene-2-carboxamide]"
3,146,"O=C(Nc1cccc(Cc2n[nH]c(=O)c3c2CCCC3)c1)c1ccsc1 [Example 197, N-(3-((4-oxo-3,4,5,6,7,8-hexahydrophthalazin-1-yl)methyl)phenyl)thiophene-3-carboxamide]"
4,403,"Cc1ccsc1C(=O)Nc1cccc(Cc2n[nH]c(=O)c3c2CCCC3)c1 [Example 198, 3-methyl-N-(3-((4-oxo-3,4,5,6,7,8-hexahydrophthalazin-1-yl)methyl)phenyl)thiophene-2-carboxamide]"
5,196,"Cc1ccc(C(=O)Nc2cccc(Cc3n[nH]c(=O)c4c3CCCC4)c2)s1 [Example 199, 5-methyl-N-(3-((4-oxo-3,4,5,6,7,8-hexahydrophthalazin-1-yl)methyl)phenyl)thiophene-2-carboxamide]"
6,158,O=C(Nc1cccc(Cc2n[nH]c(=O)c3c2CCCC3)c1)c1ccc[nH]1 [Example 200]
7,570,"Cn1cccc1C(=O)Nc1cccc(Cc2n[nH]c(=O)c3c2CCCC3)c1 [Example 201, 1-methyl-N-(3-((4-oxo-3,4,5,6,7,8-hexahydrophthalazin-1-yl)methyl)phenyl)-1H-pyrrole-2-carboxamide]"
8,93,"Cc1cc(C(=O)Nc2cccc(Cc3n[nH]c(=O)c4c3CCCC4)c2)c(C)[nH]1 [Example 202, 2,5-dimethyl-N-(3-((4-oxo-3,4,5,6,7,8-hexahydrophthalazin-1-yl)methyl)phenyl)-1H-pyrrole-3-carboxamide]"
9,203,"O=C(Nc1cccc(Cc2n[nH]c(=O)c3c2CCCC3)c1)c1nccs1 [Example 204, N-(3-((4-oxo-3,4,5,6,7,8-hexahydrophthalazin-1-yl)methyl)phenyl)-1,3-thiazole-2-carboxamide]"
10,176,"O=C(Nc1cccc(Cc2n[nH]c(=O)c3c2CCCC3)c1)c1cscn1 [Example 205, N-(3-((4-oxo-3,4,5,6,7,8-hexahydrophthalazin-1-yl)methyl)phenyl)-1,3-thiazole-4-carboxamide]"
11,18,"O=C(Nc1cccc(Cc2n[nH]c(=O)c3c2CCCC3)c1)c1cncs1 [Example 206, N-(3-((4-oxo-3,4,5,6,7,8-hexahydrophthalazin-1-yl)methyl)phenyl)-1,3-thiazole-5-carboxamide]"
12,22,"O=C(Nc1cccc(Cc2n[nH]c(=O)c3c2CCCC3)c1)c1ccno1 [Example 208, N-(3-((4-oxo-3,4,5,6,7,8-hexahydrophthalazin-1-yl)methyl)phenyl)isoxazole-5-carboxamide]"
13,395,"Cc1noc(C)c1C(=O)Nc1cccc(Cc2n[nH]c(=O)c3c2CCCC3)c1 [Example 209, 3,5-dimethyl-N-(3-((4-oxo-3,4,5,6,7,8-hexahydrophthalazin-1-yl)methyl)phenyl)isoxazole-4-carboxamide]"
14,98,"O=C(Nc1cccc(Cc2n[nH]c(=O)c3c2CCCC3)c1)c1ccncc1 [Example 211, N-(3-((4-oxo-3,4,5,6,7,8-hexahydrophthalazin-1-yl)methyl)phenyl)isonicotinamide]"
15,65,"O=C(Nc1cccc(Cc2n[nH]c(=O)c3c2CCCC3)c1)c1ncccc1O [Example 212, 3-hydroxy-N-(3-((4-oxo-3,4,5,6,7,8-hexahydrophthalazin-1-yl)methyl)phenyl)pyridine-2-carboxamide]"
16,82,"O=C(Nc1cccc(Cc2n[nH]c(=O)c3c2CCCC3)c1)c1cccnc1O [Example 213, 2-hydroxy-N-(3-((4-oxo-3,4,5,6,7,8-hexahydrophthalazin-1-yl)methyl)phenyl)nicotinamide]"
17,7,"O=C(Nc1cccc(Cc2n[nH]c(=O)c3c2CCCC3)c1)c1ccc(O)nc1 [Example 214, 6-hydroxy-N-(3-((4-oxo-3,4,5,6,7,8-hexahydrophthalazin-1-yl)methyl)phenyl)nicotinamide]"
18,85,"O=C(Cc1ccccn1)Nc1cccc(Cc2n[nH]c(=O)c3c2CCCC3)c1 [Example 215, N-(3-((4-oxo-3,4,5,6,7,8-hexahydrophthalazin-1-yl)methyl)phenyl)-2-pyridin-2-ylacetamide]"

row,Structure (SMILES),Ki [nM]
1,"O=C(CCCC(=O)Nc1cccc(Cc2n[nH]c(=O)c3c2CCCC3)c1)Nc1ccccc1 [Example 172, N-(3-((4-oxo-3,4,5,6,7,8-hexahydrophthalazin-1-yl)methyl)phenyl)-N′-phenylpentanediamide]",3
2,"COc1ccc(C(=O)CCC(=O)Nc2cccc(Cc3n[nH]c(=O)c4c3CCCC4)c2)cc1 [Example 173, 4-(4-methoxyphenyl)-4-oxo-N-(3-((4-oxo-3,4,5,6,7,8-hexahydrophthalazin-1-yl)methyl)phenyl)butanamide]",2
3,"CCCCOc1ccc(C(=O)Nc2cccc(Cc3n[nH]c(=O)c4c3CCCC4)c2)cc1 [Example 190, 4-butoxy-N-(3-((4-oxo-3,4,5,6,7,8-hexahydrophthalazin-1-yl)methyl)phenyl)benzamide]",263
